Measured values reported in US7943618B2, “Btk protein kinase inhibitors” (Roche Palo Alto LLC, priority 2007, dated 2011).

Biological target: T1, Btk enzyme (His-tagged, full-length) (Homo sapiens, UniProt Q06187)
T1 construct: 5-10 nM Btk enzyme (His-tagged, full-length); His
Assay: Bruton's Tyrosine Kinase (Btk) Inhibition Assay (33P filtration capture)
Assay type: biochemical
Details: Bruton's tyrosine kinase Assay (Example 34); Table I pyridazinones; 100 μM ATP
Description: Bruton's Tyrosine Kinase (Btk) Inhibition Assay
The assay is a capture of radioactive ^33P phosphorylated product through filtration. The interactions of Btk, biotinylated SH2 peptide substrate (Src homology), and ATP lead to phosphorylation of the peptide substrate. Biotinylated product is bound streptavidin sepharose beads. All bound, radiolabeled products are detected by scintillation counter.
Plates assayed are 96-well polypropylene (Greiner) and 96-well 1.2 μm hydrophilic PVDF filter plates (Millipore).
IC50 determinations are calculated from 10 data points per compound utilizing data produced from a standard 96-well plate assay template. One control compound and seven unknown inhibitors were tested on each plate and each plate was run twice. […] The control compound was staurosporine. Background was counted in the absence of peptide substrate. Total activity was determined in the presence of peptide substrate. The following protocol was used to determine Btk inhibition.
1) Sample preparation: The test compounds were diluted at half-log increments in assay buffer (imidazole, glycerol-2-phosphate, EGTA, MnCl2, MgCl2, BSA).
2) Bead preparation • a.) rinse beads by centrifuging at 500 g • b.) reconstitute the beads with PBS and EDTA to produce a 20% bead slurry
3) Pre-incubate reaction mix without substrate (assay buffer, DTT, ATP, ^33P ATP) and mix with substrate (assay buffer, DTT, ATP, ^33P ATP, peptide substrate) 30° C. for 15 min.
4) To start assay, pre-incubate 10 μL Btk in enzyme buffer (imidazole, glycerol-2-phosphate, BSA) and 10 μL of test compounds for 10 min at RT.
5) Add 30 μL reaction mixture without or with substrate to Btk and compounds.
6) Incubate 50 μL total assay mix for 30 min at 30° C.
7) Transfer 40 μL of assay to 150 μL bead slurry in filter plate to stop reaction.
8) Wash filter plate after 30 min, with following steps • a. 3×250 μL NaCl • b. 3×250 μL NaCl containing 1% phosphoric acid • c. 1×250 μL H2O
9) Dry plate for 1 h at 65° C. or overnight at RT
10) Add 50 μL microscint-20 and count ^33P cpm on scintillation counter.
Calculate percent activity from raw data in cpm percent activity=(sample−bkg)/(total activity−bkg)×100
Calculate IC50 from percent activity, using one-site dose response sigmoidal model y=A+((B−A)/(1+((x/C)^D))))

T1 sequence (Q06187 whole entry): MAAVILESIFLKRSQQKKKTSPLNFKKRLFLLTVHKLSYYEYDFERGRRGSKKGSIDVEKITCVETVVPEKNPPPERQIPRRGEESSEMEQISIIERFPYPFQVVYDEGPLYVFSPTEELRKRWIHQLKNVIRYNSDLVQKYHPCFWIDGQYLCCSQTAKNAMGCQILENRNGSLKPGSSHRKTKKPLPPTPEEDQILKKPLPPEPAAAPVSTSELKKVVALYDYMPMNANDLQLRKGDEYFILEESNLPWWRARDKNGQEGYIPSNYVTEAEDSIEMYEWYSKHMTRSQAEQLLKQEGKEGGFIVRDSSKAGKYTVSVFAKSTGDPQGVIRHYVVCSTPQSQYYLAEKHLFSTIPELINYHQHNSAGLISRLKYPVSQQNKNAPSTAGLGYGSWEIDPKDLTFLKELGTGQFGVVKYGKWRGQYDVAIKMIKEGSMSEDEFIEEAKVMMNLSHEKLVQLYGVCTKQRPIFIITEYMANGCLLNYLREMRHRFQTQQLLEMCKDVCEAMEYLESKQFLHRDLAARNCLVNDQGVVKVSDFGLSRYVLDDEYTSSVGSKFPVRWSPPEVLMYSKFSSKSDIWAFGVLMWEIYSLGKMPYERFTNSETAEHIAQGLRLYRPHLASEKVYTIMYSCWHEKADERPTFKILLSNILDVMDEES

**Q.** With `COC(=O)c1ccc(Nc2cc(-c3cccc(NC(=O)c4ccc(C(C)(C)C)cc4)c3C)nn(C)c2=O)nc1` [Compound I-9] as the compound, how does the IC50 read?
**A.** Its IC50 is 160 nM.

**Q.** How did the IC50 turn out when `Cc1c(NC(=O)c2ccc(C(C)(C)C)cc2)cccc1-c1cc(Nc2ccnc(S(C)(=O)=O)n2)c(=O)n(C)n1` [Compound I-13] was run?
**A.** Its IC50 is 1060 nM.

**Q.** `Cc1c(NC(=O)c2ccc(C(C)(C)O)cc2)cccc1-c1cc(Nc2ccc(C(=O)N3CCOCC3)cn2)c(=O)n(C)n1` [Compound I-15] was tested. Which IC50 did it give?
**A.** The IC50 was 374 nM.

**Q.** Which IC50 does the source give for `Cc1c(NC(=O)c2ccc(C(C)(C)C)cc2)cccc1-c1cc(Nc2ccnc(OCC3CCNC3)n2)c(=O)n(C)n1` (stereo not drawn) [Compound I-19, 4-tert-Butyl-N-(2-methyl-3-{1-methyl-6-oxo-5-[2-(pyrrolidin-3-ylmethoxy)-pyrimidin-4-ylamino]-1,6-dihydro-pyridazin-3-yl}-phenyl)-benzamide] here?
**A.** Its IC50 is 143 nM.

**Q.** With `Cc1c(NC(=O)c2ccc(C(C)(C)C)cc2)cccc1-c1cc(Nc2ccnc(N3CCC(O)C3)n2)c(=O)n(C)n1` (stereo not drawn) [Compound I-22, 4-tert-Butyl-N-(3-{5-[2-(3-hydroxy-pyrrolidin-1-yl) -pyrimidin-4-ylamino]-1-methyl-6-oxo-1-6-dihydro-pyridazin-3-yl}-2-methyl-phenyl)-benzamide] as the compound, how does the IC50 read?
**A.** Its IC50 is 52 nM.

**Q.** For `Cc1c(NC(=O)c2ccc(N(C)C)cc2)cccc1-c1cc(Nc2ccc(C(=O)N3CCC(O)CC3)cn2)c(=O)n(C)n1` [Compound I-28, 4-Dimethylamino-N-(3-{5-[5-(4-hydroxy-piperidine-1-carbonyl)-pyridin-2-ylamino]-1-methyl-6-oxo-1,6-dihydro-pyridazin-3-yl}-2-methyl-phenyl)-benzamide], which IC50 is on record?
**A.** Its IC50 is 34 nM.

**Q.** How did the IC50 turn out when `Cn1nc(-c2cccc(CC(=O)NCCC(O)C(C)(C)C)c2)cc(Nc2ccc(C(=O)N3CCOCC3)cn2)c1=O` (stereo not drawn) [Compound I-29] was run?
**A.** The IC50 was 1720 nM.

**Q.** `Cn1nc(-c2cccc(CC(=O)N3Cc4ccccc4C3)c2)cc(Nc2ccc(C(=O)N3CCC(O)CC3)cn2)c1=O` [Compound I-31] was tested. Which IC50 did it give?
**A.** The IC50 was 155 nM.

**Q.** With `Cn1nc(-c2cccc(CC(=O)c3ccc(C(C)(C)C)cc3)c2)cc(Nc2ccc(C(=O)N3CCOCC3)cn2)c1=O` [Compound I-37, 6-{3-[2-(4-tert-Butyl-phenyl)-2-oxo-ethyl]-phenyl}-2-methyl-4-[5-(morpholine-4-carbonyl)-pyridin-2-ylamino]-2H-pyridazin-3-one] as the compound, how does the IC50 read?
**A.** The IC50 was 206 nM.

**Q.** `CC(=O)N1CCN(C(=O)Cc2cccc(-c3cc(Nc4ccc(C(=O)N5CCOCC5)cn4)c(=O)n(C)n3)c2)CC1` [Compound I-44] was tested. Which IC50 did it give?
**A.** Its IC50 is 61600 nM.

**Q.** `Cn1nc(-c2cccc(NC(=O)c3ccc(C4CC4)cc3)c2CO)cc(Nc2ccc(C(=O)N3CCOCC3)cn2)c1=O` [Compound I-46] was tested. Which IC50 did it give?
**A.** Its IC50 is less than 10 nM.

Same assay, conditions: Bruton's tyrosine kinase Assay (Example 34); Table II pyridinones; 100 μM ATP

**Q.** `CCNC(=O)Nc1cc(-c2cccc(NC(=O)c3ccc(C(C)(C)C)cc3)c2C)cn(C)c1=O` [II-5] was tested. Which IC50 did it give?
**A.** Its IC50 is 13 nM.

**Q.** `CNC(=O)Nc1cc(-c2cccc(NC(=O)c3ccc(N(C)C)nc3)c2C)cn(C)c1=O` [II-15, 6-Dimethylamino-N-{2-methyl-3-[1-methyl-5-(3-methyl-ureido)-6-oxo-1,6-dihydro-pyridin-3-yl]-phenyl}-nicotinamide] was tested. Which IC50 did it give?
**A.** Its IC50 is 2310 nM.

**Q.** How did the IC50 turn out when `CNC(=O)Nc1cc(-c2cccc(NC(=O)c3ccc(N4CCCCC4)nc3)c2C)cn(C)c1=O` [II-19] was run?
**A.** Its IC50 is 310 nM.

**Q.** For `CNC(=O)Nc1cc(-c2cccc(NC(=O)c3ccc4c(ccn4C)c3)c2C)cn(C)c1=O` [II-23, 1-Methyl-1H-indole-5-carboxylic acid{2-methyl-3-[1-methyl-5-(3-methyl-ureido)-6-oxo-1,6-dihydro-pyridin-3-yl]-phenyl}-amide], which IC50 is on record?
**A.** Its IC50 is 9930 nM.

**Q.** How did the IC50 turn out when `CNC(=O)Nc1cc(-c2cccc(NC(=O)c3ccc(C(C)(C)C)cc3)c2)cn(C)c1=O` [II-27] was run?
**A.** Its IC50 is 131 nM.

**Q.** For `CNC(=O)Nc1cc(-c2cccc(NC(=O)c3ccc(C(C)(C)O)cc3)c2C)cn(C)c1=O` [II-28, 4-(1-Hydroxy-1-methyl-ethyl)-N-{2-methyl-3-[1-methyl-5-(3-methyl-ureido)-6-oxo-1,6-dihydro-pyridin-3-yl]-phenyl}-benzamide], which IC50 is on record?
**A.** Its IC50 is 230 nM.

**Q.** How did the IC50 turn out when `CNC(=O)Nc1cc(-c2cccc(CC(=O)N3Cc4cc(Cl)c(Cl)cc4C3)c2)cn(C)c1=O` [II-31] was run?
**A.** Its IC50 is 14800 nM.

**Q.** How did the IC50 turn out when `CNC(=O)Nc1cc(-c2cccc(NC(=O)c3ccc(C(C)(C)C#N)cc3)c2C)cn(C)c1=O` [II-42, 4-(Cyano-dimethyl-methyl)-N-{2-methyl-3-[1-methyl-5-(3-methyl-ureido)-6-oxo-1,6-dihydro-pyridin-3-yl]-phenyl}-benzamide] was run?
**A.** The IC50 was 681 nM.

**Q.** `CNC(=O)Nc1cc(-c2cccc(CC(=O)N3Cc4ccc(F)cc4C3)c2)cn(C)c1=O` [II-46] was tested. Which IC50 did it give?
**A.** The IC50 was 3440 nM.

**Q.** With `CN(C)c1ccc(C(=O)Nc2cccc(-c3cc(Nc4ccc(C(=O)N5CCOCC5)cn4)c(=O)n(C)c3)c2CO)cc1` [II-49, 4-Dimethylamino-N-(2-hydroxymethyl-3-{1-methyl-5-[5-(morpholine-4-carbonyl)-pyridin-2-ylamino]-6-oxo-1,6-dihydro-pyridin-3-yl}-phenyl)-benzamide] as the compound, how does the IC50 read?
**A.** Its IC50 is less than 10 nM.

**Q.** For `Cn1cc(-c2cccc(NC(=O)c3ccc(C(C)(C)F)cc3)c2CO)cc(Nc2ccc(C(=O)N3CCOCC3)cn2)c1=O` [II-52], which IC50 is on record?
**A.** Its IC50 is less than 10 nM.

**Q.** With `C[C@H](O)CNC(=O)Nc1cc(-c2cccc(NC(=O)c3ccc(C4CC4)cc3)c2CO)cn(C)c1=O` [II-54] as the compound, how does the IC50 read?
**A.** Its IC50 is 68 nM.

**Q.** `Cn1cc(-c2cccc(NC(=O)c3ccc(C(F)(F)F)cc3)c2CO)cc(Nc2ccc(C(=O)N3CCOCC3)cn2)c1=O` [II-55] was tested. Which IC50 did it give?
**A.** Its IC50 is 85 nM.

**Q.** For `CN(C)c1ccc(C(=O)Nc2cccc(-c3cc(Nc4ccccn4)c(=O)n(C)c3)c2CO)cc1` [II-59], which IC50 is on record?
**A.** Its IC50 is 20 nM.

**Q.** How did the IC50 turn out when `CN(C)c1ccc(C(=O)Nc2cccc(-c3cc(Nc4ccc(C(=O)N5CCC(N(C)C)CC5)cn4)c(=O)n(C)c3)c2CO)cc1` [II-60] was run?
**A.** Its IC50 is less than 10 nM.

**Q.** Which IC50 does the source give for `Cn1cc(-c2cccc(NC(=O)c3ccc(Br)cc3)c2CO)cc(Nc2ccc(C(=O)N3CCOCC3)cn2)c1=O` [II-63] here?
**A.** Its IC50 is 31 nM.

**Q.** How did the IC50 turn out when `Cn1cc(-c2cccc(NC(=O)c3ccc(C4(F)CC4)cc3)c2CO)cc(Nc2ccccn2)c1=O` [II-64] was run?
**A.** The IC50 was 50 nM.

**Q.** Which IC50 does the source give for `CCNC(=O)Nc1cc(-c2cccc(NC(=O)c3ccc(C4(F)CC4)cc3)c2CO)cn(C)c1=O` [II-65] here?
**A.** Its IC50 is 15 nM.

**Q.** `COC(C)(C)c1ccc(C(=O)Nc2cccc(-c3cc(Nc4ccc(C(=O)N5CCOCC5)cn4)c(=O)n(C)c3)c2CO)cc1` [II-66] was tested. Which IC50 did it give?
**A.** Its IC50 is 24 nM.

**Q.** For `Cn1cc(-c2cccc(NC(=O)c3ccccc3)c2CO)cc(Nc2ccc(C(=O)N3CCOCC3)cn2)c1=O` [II-67], which IC50 is on record?
**A.** The IC50 was 770 nM.

**Q.** `Cn1cc(-c2cccc(NC(=O)c3ccc(C(F)(C(F)(F)F)C(F)(F)F)cc3)c2CO)cc(Nc2ccc(C(=O)N3CCOCC3)cn2)c1=O` [II-68] was tested. Which IC50 did it give?
**A.** The IC50 was 71 nM.

**Q.** Which IC50 does the source give for `C#Cc1ccc(C(=O)Nc2cccc(-c3cc(Nc4ccc(C(=O)N5CCOCC5)cn4)c(=O)n(C)c3)c2CO)cc1` [II-69] here?
**A.** Its IC50 is 76 nM.

**Q.** For `Cn1cc(-c2cccc(NC(=O)c3ccc4c(c3)OCC4(C)C)c2CO)cc(Nc2ccc(C(=O)N3CCOCC3)cn2)c1=O` [II-71, 3,3-Dimethyl-2,3-dihydro-benzofuran-6-carboxylic acid (2-hydroxymethyl-3-{1-methyl-5-[5-(morpholine-4-carbonyl)-pyridin-2-ylamino]-6-oxo-1,6-dihydro-pyridin-3-yl}-phenyl)-amide], which IC50 is on record?
**A.** Its IC50 is less than 10 nM.

**Q.** For `Cn1cc(-c2cccc(NC(=O)c3ccc(C4(C(F)F)CC4)cc3)c2CO)cc(Nc2ccc(C(=O)N3CCOCC3)cn2)c1=O` [II-72, 4-(1-Difluoromethyl-cyclopropyl)-N-(2-hydroxymethyl-3-{1-methyl-5-[5-(morpholine-4-carbonyl)-pyridin-2-ylamino]-6-oxo-1,6-dihydro-pyridin-3-yl}-phenyl)-benzamide], which IC50 is on record?
**A.** Its IC50 is less than 10 nM.

**Q.** With `Cn1cc(-c2cccc(NC(=O)c3ccc(C(Cl)(Cl)Cl)cc3)c2CO)cc(Nc2ccc(C(=O)N3CCOCC3)cn2)c1=O` [II-74] as the compound, how does the IC50 read?
**A.** The IC50 was 50 nM.

**Q.** Which IC50 does the source give for `Cn1cc(-c2cccc(NC(=O)c3ccc(C4(Cl)CC4)cc3)c2CO)cc(Nc2ccc(C(=O)N3CCOCC3)cn2)c1=O` [II-75] here?
**A.** Its IC50 is less than 10 nM.

**Q.** How did the IC50 turn out when `Cn1cc(-c2cccc(NC(=O)c3ccc([Si](C)(C)C)cc3)c2CO)cc(Nc2ccc(C(=O)N3CCOCC3)cn2)c1=O` [II-76] was run?
**A.** Its IC50 is 40 nM.

**Q.** For `CCNC(=O)Nc1cc(-c2cccc(NC(=O)c3ccc(C4CC4)cc3)c2CO)cn(C)c1=O` [II-77], which IC50 is on record?
**A.** Its IC50 is 40 nM.

**Q.** With `Cn1cc(-c2cccc(NC(=O)c3ccc(C4CC4)cc3)c2CO)cc(NC(=O)NCCc2ccccn2)c1=O` [II-78] as the compound, how does the IC50 read?
**A.** The IC50 was 214 nM.

**Q.** For `Cn1cc(-c2cccc(NC(=O)c3ccc(C4CC4)cc3)c2CO)cc(NC(=O)NCCc2cccnc2)c1=O` [II-79], which IC50 is on record?
**A.** The IC50 was 160 nM.

**Q.** For `CN(C)CCCNC(=O)Nc1cc(-c2cccc(NC(=O)c3ccc(C4CC4)cc3)c2CO)cn(C)c1=O` [II-80], which IC50 is on record?
**A.** The IC50 was 43 nM.
